The values that follow come from paper PMC2787382 (The Journal of Biological Chemistry, 2009).

For experiment [1], the target named is T1, dP2XE (Dictyostelium discoideum, UniProt Q54JH4).
T1 sequence (Q54JH4 1-388): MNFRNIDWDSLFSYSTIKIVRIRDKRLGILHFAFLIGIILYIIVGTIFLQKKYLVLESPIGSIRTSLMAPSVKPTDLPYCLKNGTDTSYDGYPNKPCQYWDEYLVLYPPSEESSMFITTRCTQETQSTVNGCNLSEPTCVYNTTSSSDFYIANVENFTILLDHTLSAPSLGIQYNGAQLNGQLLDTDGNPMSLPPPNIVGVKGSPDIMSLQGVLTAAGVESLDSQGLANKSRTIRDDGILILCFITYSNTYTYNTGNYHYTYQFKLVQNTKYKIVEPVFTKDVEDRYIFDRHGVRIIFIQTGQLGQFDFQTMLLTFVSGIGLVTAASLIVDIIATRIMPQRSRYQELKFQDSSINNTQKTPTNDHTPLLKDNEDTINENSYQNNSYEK
The experiment can be described thus: cell-based.

In the next experiment the target is T2, dP2XB (Dictyostelium discoideum, UniProt Q553Y1).
T2 sequence (Q553Y1 1-369): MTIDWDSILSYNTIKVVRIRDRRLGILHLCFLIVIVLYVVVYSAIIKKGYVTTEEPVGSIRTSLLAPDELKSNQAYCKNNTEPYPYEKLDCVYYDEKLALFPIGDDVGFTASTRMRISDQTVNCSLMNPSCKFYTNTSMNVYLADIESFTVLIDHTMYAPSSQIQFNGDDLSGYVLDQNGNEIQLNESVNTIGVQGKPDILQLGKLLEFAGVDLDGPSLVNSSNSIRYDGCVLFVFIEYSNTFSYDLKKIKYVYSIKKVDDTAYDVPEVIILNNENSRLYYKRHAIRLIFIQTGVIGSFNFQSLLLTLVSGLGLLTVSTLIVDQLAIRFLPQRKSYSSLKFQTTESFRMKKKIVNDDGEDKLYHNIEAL
The experiment can be described thus: two-electrode voltage clamp, Xenopus oocytes, peak current. The experiment is classed as cell-based.

A further experiment has as its target dP2XA (Dictyostelium discoideum, UniProt Q86JM7). The description is as above. The class given is cell-based.
In experiment [2] the target is T1, dP2XE. The description is as above. The class given is cell-based. The following applies: weak partial agonist; ND98K+, pH 6.2, −70 mV, room temperature.

dP2XA, sequence (Q86JM7 whole entry): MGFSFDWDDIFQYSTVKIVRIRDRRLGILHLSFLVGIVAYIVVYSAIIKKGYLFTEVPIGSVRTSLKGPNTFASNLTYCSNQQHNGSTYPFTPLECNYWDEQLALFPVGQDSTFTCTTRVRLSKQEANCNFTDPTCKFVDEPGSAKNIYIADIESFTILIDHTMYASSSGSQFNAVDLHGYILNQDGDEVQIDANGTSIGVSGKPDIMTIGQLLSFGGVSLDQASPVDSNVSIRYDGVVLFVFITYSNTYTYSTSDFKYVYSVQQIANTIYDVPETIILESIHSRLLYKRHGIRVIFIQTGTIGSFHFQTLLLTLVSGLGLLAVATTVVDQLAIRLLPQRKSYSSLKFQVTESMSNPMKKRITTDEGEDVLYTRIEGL

For orientation: EC50 means the midpoint of the concentration-response curve. A low value points to higher potency in that assay. Take `Nc1ncnc2c1ncn2[C@@H]1O[C@H](COP(=O)(O)OP(=O)(O)OP(=O)(O)O)[C@@H](O)[C@H]1O` [ATP]: the EC50 was found to be 511 µM at dP2XE [1], 266 µM at dP2XB and 97 µM on dP2XA.

As for `Nc1ncnc2c1ncn2[C@@H]1O[C@H](COP(=O)(O)OP(=O)(O)NP(=O)(O)O)[C@@H](O)[C@H]1O` [β,γ-Imido-ATP], the “maximal response, % that of ATP” value at dP2XE [2] is given as 22.3 ± 6.4%. Also, the figures for the EC50 at dP2XB and at dP2XA were 85 µM and 3.1 µM, respectively.
